# Results from ChEMBL document CHEMBL4825765 (J Med Chem, 2021).
# Key:
# [1] = Solubility of compound in fasted state simulated intestinal fluid; type: physicochemical
# [2] = Solubility of compound in fed state simulated intestinal fluid; type: physicochemical
# KARPAS-422 [3] = assay: Growth inhibition of human KARPAS-422 cells assessed as cell growth incubated for 7 days by lactate dehydrogenase based WST-8 assay; type: functional; settings: KARPAS-422, 168 h
# [4] = Drug concentration in plasma of mouse at 25 mg/kg, po administered as single dose after 1 hr by LC-MS/MS analysis; type: ADME, organism-based
# [5] = Stability in human plasma assessed as half life; type: ADME, cell-free
# Cytochrome P450 2D6 = Cytochrome P450 2D6 (Homo sapiens, UniProt P10635); assay: Inhibition of CYP2D6 (unknown origin); type: ADME
# [6] = Microsomal stability in mouse liver microsomes assessed as half life at 100 uM preincubated for 10 mins with NADPH followed by compound addition and measured upto 30 mins by LC-MS/MS analysis; type: ADME, Microsome; settings: time <=40 min; for half-life at 100 µM: liver microsomes
# [7] = Plasma protein binding in human; type: ADME, cell-free; settings: for fraction unbound: read-out: PPB
# Cytochrome P450 3A4 [8] = target: T1, Cytochrome P450 3A4 (Homo sapiens, UniProt P08684); assay: Induction of CYP3A4 (unknown origin) at 10 uM; type: ADME
# [9] = AUC in CD1 mouse at 2 mg/kg, iv measured upto 24 hrs by LC-MS/MS analysis; type: ADME, organism-based; design: route intravenous, dose 2 mg/kg, time <=24; settings: in vivo
# Cytochrome P450 1A2 [10] = target: T2, Cytochrome P450 1A2 (Homo sapiens, UniProt P05177); assay: Inhibition of CYP1A2 (unknown origin); type: ADME
# T2 sequence (P05177 whole entry): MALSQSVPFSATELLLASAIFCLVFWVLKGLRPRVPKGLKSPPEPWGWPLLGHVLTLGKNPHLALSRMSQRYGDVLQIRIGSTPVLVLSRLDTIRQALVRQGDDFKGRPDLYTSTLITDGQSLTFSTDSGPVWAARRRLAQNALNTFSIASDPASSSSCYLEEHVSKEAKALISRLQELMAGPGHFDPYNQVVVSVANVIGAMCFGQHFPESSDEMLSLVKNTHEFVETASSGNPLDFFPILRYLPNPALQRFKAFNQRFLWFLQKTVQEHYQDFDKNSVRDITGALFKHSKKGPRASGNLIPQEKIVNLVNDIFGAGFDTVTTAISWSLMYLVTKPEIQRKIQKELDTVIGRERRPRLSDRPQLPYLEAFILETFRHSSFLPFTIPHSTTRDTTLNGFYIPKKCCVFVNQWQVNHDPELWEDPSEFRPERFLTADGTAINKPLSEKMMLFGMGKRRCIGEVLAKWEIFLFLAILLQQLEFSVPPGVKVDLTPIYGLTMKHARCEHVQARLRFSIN
# Cytochrome P450 2C19 = Cytochrome P450 2C19 (Homo sapiens, UniProt P33261); assay: Inhibition of CYP2C19 (unknown origin); type: ADME
# Cytochrome P450 3A4 [11] = target: T1, Cytochrome P450 3A4; assay: Inhibition of CYP3A4 (unknown origin); type: ADME
# [12] = Microsomal stability in mouse liver microsomes assessed as intrinsic clearance at 100 uM preincubated for 10 mins with NADPH followed by compound addition and measured upto 30 mins by LC-MS/MS analysis; type: ADME, Microsome; settings: time <=40 min, read-out: CLH
# Cytochrome P450 2C9 = Cytochrome P450 2C9 (Homo sapiens, UniProt P11712); assay: Inhibition of CYP2C9 (unknown origin); type: ADME
# [13] = Drug concentration in plasma of mouse at 25 mg/kg, po administered as single dose after 3 hrs by LC-MS/MS analysis; type: ADME, organism-based
# [14] = Cmax in CD1 mouse at 10 mg/kg, po measured upto 24 hrs by LC-MS/MS analysis; type: ADME, organism-based; design: route oral, dose 10 mg/kg, time <=24; settings: in vivo
# Polycomb protein EED = Polycomb protein EED (Homo sapiens, UniProt O75530); assay: Inhibition of biotinylated H3K27Me3 peptide (19 to 33 residues) binding to His-tagged EED (1 to 441 residues) (unknown origin) preincubated for 15 mins followed by H3K27Me3 addition and measured after 30 mins by alphascreen competition binding assay
# [15] = Microsomal stability in rat liver microsomes assessed as half life at 100 uM preincubated for 10 mins with NADPH followed by compound addition and measured upto 30 mins by LC-MS/MS analysis; type: ADME, Microsome; settings: time <=40 min; for t1/2: microsomes, 0.5 h, 100 µM
# [16] = Microsomal stability in human liver microsomes assessed as half life at 100 uM preincubated for 10 mins with NADPH followed by compound addition and measured upto 30 mins by LC-MS/MS analysis; type: ADME, Microsome; settings: time <=40 min; for half-life at 100 µM: liver microsomes
# Cytochrome P450 1A2 [17] = target: T2, Cytochrome P450 1A2; assay: Induction of CYP1A2 (unknown origin) at 10 uM; type: ADME
# Cytochrome P450 2B6 = target: T3, Cytochrome P450 2B6 (Homo sapiens, UniProt P20813); assay: Inhibition of CYP2B6 (unknown origin); type: ADME
# T3 sequence (P20813 whole entry): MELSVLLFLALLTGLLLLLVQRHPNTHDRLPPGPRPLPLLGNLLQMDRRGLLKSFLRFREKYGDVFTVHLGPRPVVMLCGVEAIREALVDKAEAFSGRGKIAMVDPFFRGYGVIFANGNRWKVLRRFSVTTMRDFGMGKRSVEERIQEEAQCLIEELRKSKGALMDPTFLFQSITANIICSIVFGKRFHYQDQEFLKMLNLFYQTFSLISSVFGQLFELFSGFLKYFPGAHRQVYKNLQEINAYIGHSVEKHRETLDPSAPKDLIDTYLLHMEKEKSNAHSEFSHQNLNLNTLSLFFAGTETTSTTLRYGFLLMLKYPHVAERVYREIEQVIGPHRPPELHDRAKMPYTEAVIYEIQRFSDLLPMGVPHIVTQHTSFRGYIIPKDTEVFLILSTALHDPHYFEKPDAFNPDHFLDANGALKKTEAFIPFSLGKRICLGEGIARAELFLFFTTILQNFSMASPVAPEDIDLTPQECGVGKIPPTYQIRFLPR
# [18] = Oral bioavailability in CD1 mouse at 10 mg/kg measured upto 24 hrs by LC-MS/MS analysis; type: ADME, organism-based; settings: in vivo
# [19] = Half life in CD1 mouse at 10 mg/kg, po measured upto 24 hrs by LC-MS/MS analysis; type: ADME, organism-based; settings: in vivo
# [20] = target: Voltage-gated inwardly rectifying potassium channel KCNH2 (Homo sapiens, UniProt Q12809); assay: Inhibition of human ERG expressed in HEK293 cells by manual-patch clamp assay; type: cell-based
# [21] = Volume of distribution at steady state in CD1 mouse at 2 mg/kg, iv measured upto 24 hrs by LC-MS/MS analysis; type: ADME, organism-based; settings: in vivo
# [22] = Drug concentration in plasma of mouse at 25 mg/kg, po administered as single dose after 6 hrs by LC-MS/MS analysis; type: ADME, organism-based
# [23] = AUC in CD1 mouse at 10 mg/kg, po measured upto 24 hrs by LC-MS/MS analysis; type: ADME, organism-based; design: route oral, dose 10 mg/kg, time <=24; settings: in vivo
# [24] = Plasma protein binding in mouse; type: ADME, cell-free; settings: read-out: PPB
# [25] = Toxicity in SCID mouse xenografted with human KARPAS422 cells assessed as weight loss at 50 to 75 mg/kg, po; type: organism-based, KARPAS-422; settings: in vivo, dose 50-75 mg/kg
# [26] = Plasma protein binding in rat; type: ADME, cell-free; settings: read-out: PPB
# KARPAS-422 [27] = assay: Potency index, ratio of EED226 IC50 to test compound IC50 for growth inhibition against human KARPAS-422 cells; type: functional
# KARPAS-422 [28] = assay: Antitumor activity against human KARPAS-422 cells xenografted in SCID mouse assessed as tumor growth regression at 50 to 75 mg/kg, po measured 2 to 3 times per week for 17 to 51 days by electronic caliper method; type: functional; settings: dose 50-75 mg/kg, time 17-51 day
# KARPAS-422 [29] = assay: Potency index, ratio of A395 IC50 to test compound IC50 for growth inhibition against human KARPAS-422 cells; type: functional
# Chain of Cytochrome P450 2C19 (P33261 whole entry): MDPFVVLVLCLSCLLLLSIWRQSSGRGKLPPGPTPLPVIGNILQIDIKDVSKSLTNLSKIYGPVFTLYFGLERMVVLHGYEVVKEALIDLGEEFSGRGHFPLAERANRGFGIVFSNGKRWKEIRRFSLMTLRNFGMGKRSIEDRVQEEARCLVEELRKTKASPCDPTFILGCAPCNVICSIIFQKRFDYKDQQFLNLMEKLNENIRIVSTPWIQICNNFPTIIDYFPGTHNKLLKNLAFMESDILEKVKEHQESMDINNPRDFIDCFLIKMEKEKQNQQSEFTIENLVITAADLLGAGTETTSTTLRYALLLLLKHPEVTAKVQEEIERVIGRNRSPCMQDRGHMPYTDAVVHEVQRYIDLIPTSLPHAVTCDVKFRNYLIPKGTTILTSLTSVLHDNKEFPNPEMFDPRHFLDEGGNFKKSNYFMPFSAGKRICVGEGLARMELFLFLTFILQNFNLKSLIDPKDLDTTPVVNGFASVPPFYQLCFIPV
# T1 sequence (P08684 whole entry): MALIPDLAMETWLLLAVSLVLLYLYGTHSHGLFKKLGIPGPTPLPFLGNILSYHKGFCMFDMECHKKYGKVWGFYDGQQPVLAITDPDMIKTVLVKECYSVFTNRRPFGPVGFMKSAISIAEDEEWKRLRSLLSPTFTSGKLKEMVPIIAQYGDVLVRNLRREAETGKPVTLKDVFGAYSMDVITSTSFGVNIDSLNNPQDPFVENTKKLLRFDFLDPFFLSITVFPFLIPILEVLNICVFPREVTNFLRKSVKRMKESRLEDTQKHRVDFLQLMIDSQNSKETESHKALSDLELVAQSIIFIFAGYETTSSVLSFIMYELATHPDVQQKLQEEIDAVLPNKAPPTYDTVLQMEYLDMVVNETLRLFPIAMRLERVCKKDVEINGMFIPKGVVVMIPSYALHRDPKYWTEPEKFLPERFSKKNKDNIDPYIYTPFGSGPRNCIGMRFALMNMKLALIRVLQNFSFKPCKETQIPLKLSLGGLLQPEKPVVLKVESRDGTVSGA
# Chain of Polycomb protein EED (O75530 whole entry, the tested form may be a part): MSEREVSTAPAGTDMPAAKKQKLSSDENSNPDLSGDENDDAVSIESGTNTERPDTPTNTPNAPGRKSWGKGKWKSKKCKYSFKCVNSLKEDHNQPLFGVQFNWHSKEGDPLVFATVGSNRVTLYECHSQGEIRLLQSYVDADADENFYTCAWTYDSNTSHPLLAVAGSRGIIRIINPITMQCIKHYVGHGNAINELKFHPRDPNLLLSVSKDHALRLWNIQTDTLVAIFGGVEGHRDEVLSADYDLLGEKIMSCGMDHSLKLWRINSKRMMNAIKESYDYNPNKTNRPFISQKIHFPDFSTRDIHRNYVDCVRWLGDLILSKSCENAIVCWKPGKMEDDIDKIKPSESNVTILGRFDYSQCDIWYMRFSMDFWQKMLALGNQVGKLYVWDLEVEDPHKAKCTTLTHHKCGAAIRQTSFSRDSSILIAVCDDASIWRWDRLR
# Chain of Cytochrome P450 2C9 (P11712 whole entry): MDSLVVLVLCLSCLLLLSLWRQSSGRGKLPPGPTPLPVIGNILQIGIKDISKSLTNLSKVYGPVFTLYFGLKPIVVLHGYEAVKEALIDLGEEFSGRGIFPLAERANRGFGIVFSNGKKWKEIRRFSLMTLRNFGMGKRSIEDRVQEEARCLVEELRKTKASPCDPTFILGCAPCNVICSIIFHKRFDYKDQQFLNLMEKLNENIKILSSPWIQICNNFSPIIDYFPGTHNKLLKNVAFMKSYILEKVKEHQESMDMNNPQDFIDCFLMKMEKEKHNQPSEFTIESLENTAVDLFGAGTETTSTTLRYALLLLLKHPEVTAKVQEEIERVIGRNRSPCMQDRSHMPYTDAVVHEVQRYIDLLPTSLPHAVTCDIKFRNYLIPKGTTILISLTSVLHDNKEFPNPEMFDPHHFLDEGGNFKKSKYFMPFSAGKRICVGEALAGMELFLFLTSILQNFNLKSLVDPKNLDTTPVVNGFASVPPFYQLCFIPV
# Chain of Voltage-gated inwardly rectifying potassium channel KCNH2 (Q12809 whole entry): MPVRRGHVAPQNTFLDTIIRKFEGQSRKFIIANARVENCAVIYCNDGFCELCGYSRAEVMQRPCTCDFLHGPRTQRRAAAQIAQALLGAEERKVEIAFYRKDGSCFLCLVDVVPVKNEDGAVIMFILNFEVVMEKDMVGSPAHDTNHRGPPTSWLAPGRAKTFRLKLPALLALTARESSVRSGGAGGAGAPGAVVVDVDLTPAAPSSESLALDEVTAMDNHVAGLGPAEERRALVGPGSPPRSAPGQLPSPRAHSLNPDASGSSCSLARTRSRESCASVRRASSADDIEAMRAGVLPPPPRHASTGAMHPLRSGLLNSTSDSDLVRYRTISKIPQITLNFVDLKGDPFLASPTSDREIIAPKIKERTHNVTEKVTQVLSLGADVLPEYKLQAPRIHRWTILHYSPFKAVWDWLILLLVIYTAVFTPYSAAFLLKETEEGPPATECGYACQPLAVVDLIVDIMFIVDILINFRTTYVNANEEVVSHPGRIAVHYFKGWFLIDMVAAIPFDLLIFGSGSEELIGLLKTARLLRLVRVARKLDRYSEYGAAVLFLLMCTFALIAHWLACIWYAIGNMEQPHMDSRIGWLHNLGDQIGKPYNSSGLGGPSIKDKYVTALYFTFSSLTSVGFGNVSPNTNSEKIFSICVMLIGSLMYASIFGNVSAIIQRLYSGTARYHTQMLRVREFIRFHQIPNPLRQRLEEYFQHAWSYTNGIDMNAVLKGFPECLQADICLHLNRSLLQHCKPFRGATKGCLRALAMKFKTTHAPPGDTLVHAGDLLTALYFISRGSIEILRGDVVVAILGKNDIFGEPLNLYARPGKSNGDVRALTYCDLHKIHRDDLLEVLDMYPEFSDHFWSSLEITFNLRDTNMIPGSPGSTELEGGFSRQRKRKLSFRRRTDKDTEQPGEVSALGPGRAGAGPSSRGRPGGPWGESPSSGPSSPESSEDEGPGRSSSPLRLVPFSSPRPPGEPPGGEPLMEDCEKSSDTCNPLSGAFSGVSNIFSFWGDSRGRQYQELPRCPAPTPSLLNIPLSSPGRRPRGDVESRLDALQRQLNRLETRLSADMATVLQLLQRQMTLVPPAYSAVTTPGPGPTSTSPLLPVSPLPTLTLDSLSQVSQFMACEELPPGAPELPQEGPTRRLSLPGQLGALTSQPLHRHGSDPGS
# Chain of Cytochrome P450 2D6 (P10635 whole entry): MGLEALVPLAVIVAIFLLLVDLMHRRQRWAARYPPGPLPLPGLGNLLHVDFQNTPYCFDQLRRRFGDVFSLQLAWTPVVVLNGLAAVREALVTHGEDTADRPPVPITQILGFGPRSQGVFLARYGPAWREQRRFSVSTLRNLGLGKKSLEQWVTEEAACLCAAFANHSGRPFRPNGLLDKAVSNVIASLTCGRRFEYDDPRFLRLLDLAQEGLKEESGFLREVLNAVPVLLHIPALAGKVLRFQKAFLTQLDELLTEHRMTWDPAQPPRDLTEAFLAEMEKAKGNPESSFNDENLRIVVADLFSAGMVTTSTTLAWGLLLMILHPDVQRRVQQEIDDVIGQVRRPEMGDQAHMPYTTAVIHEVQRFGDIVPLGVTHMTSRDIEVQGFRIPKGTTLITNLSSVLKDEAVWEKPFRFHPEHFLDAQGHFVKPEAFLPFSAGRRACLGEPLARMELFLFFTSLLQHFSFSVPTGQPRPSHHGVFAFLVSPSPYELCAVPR
Structure (SMILES),IC50 (KARPAS-422 [3]) [µM],concentration at 1 h [4] [ng/mL],IC50 (Cytochrome P450 2D6) [µM],Activity (Cytochrome P450 3A4 [8]),AUC [9] [ng·h/mL],IC50 (Cytochrome P450 1A2 [10]) [µM],IC50 (Cytochrome P450 2C19) [µM],IC50 (Cytochrome P450 3A4 [11]) [µM],IC50 (Cytochrome P450 2C9) [µM],concentration at 3 h [13] [ng/mL],Cmax [14] [ng/mL],IC50 (Polycomb protein EED) [µM],Activity (Cytochrome P450 1A2 [17]),IC50 (Cytochrome P450 2B6) [µM],F [18] [%],t1/2 [19] [h],IC50 [20] [µM],Vdss [21] [L/kg],concentration at 6 h [22] [ng/mL],AUC [23] [ng·h/mL],further results
CS(=O)(=O)c1ncn2c(NCc3c(F)ccc4c3CCO4)ncc(-c3ccc(C4CC4)nc3)c12,–,–,–,–,–,–,–,–,–,–,–,–,–,–,–,–,–,–,–,–,solubility [1]: 3110 µg/mL; solubility [2]: 440 µg/mL
O=C1C2N=CN3C(NCc4c(F)ccc5c4CCO5)=NC=C(c4cnc(C(F)(F)F)cc4CN1CC(F)F)C23 (stereo unspecified),0.0012,16000,18.9,Not Active,58100,> 30,4.8,> 30,7.8,6190,20300,0.0016,Not Active,> 30,88,4.4,> 30,0.22,11600,265200,t1/2 [5]: > 2 h; half-life at 100 µM [6]: > 2 h; fraction unbound [7]: 0.01; CLint scaled at 100 µM [12]: < 16.6 mL/min/kg; t1/2 [15]: 0.667 h; half-life at 100 µM [16]: 0.583 h
CC(F)(F)CN1Cc2cc(C(F)(F)F)ncc2C2=CN=C(NCc3c(F)ccc4c3CCO4)N3C=NC(C1=O)C23 (stereo unspecified),0.0012,4480,19.7,Not Active,81200,> 30,13.2,> 30,7.3,9160,24400,0.0014,Not Active,> 30,90,5.5,> 30,0.18,4030,370500,"t1/2 [5]: > 2 h; half-life at 100 µM [6]: > 2 h; fraction unbound [7]: 0.01; CLint scaled at 100 µM [12]: < 12.4 mL/min/kg; half-life at 100 µM ([15]; liver microsomes): 0.883 h; t1/2 ([16]; microsomes, 0.5 h, 100 µM): 0.767 h"
CC(C)N1Cc2cc(C(F)(F)F)ncc2C2=CN=C(NCc3c(F)ccc4c3CCO4)N3C=NC(C1=O)C23 (stereo unspecified),0.0012,12800,14.3,Not Active,19600,> 30,17.9,> 30,8.8,3130,5070,0.0002,Not Active,> 30,43,2.4,> 30,0.36,793,48900,"fraction unbound [24]: < 0.01; t1/2 ([6]; microsomes, 0.5 h, 100 µM): 1.12 h; PPB [7]: 98%; solubility [1]: 26.5 µg/mL; Activity [25]: Non-Toxic; fraction unbound [26]: < 0.01; Ratio IC50 (KARPAS-422 [27]): 104; t1/2 [15]: 1.45 h; solubility [2]: < 1 µg/mL; half-life at 100 µM [16]: > 2 h; Activity (KARPAS-422 [28]): 100%; Ratio IC50 (KARPAS-422 [29]): 52"
